Measurements as given in a melting point compilation (Tetko et al.).

Molecule `CC1(C)SC2C(NC(=O)COc3ccccc3)C(=O)N2C1C(=O)O` (configuration not stated) has a melting point of 124 °C. For `Nc1c(F)cc(O)cc1F`, the melting point was 149 °C. With `COCCNc1c(C=O)c(=O)n(C)c(=O)n1C` the melting point was 137 °C. With `COC(=O)c1sccc1NC(=O)CBr` the melting point was 91 to 94 °C. For `NC(=S)c1cccc(Cl)c1Cl`, the melting point was 121 to 123 °C. With `NC(CP(=O)(O)O)C(=O)O` (configuration not stated) the melting point was 227 to 229 °C. With `COC(=O)c1c(C)cc(OC(=O)c2c(C)cc(O)c(C=O)c2O)c(C)c1O` the melting point was 195 °C. Molecule `C=Cc1c(Cl)cccc1Cl` has a melting point of 89 °C. In the case of `O=C(O)c1ccncc1C(=O)O`, the melting point was 262 °C. With `Nc1ccc(C=Cc2ccc(N)cc2OS(=O)(=O)c2ccccc2)c(OS(=O)(=O)c2ccccc2)c1` the melting point was 250 °C. Work on `COC(=O)c1ccc2c(C=O)c[nH]c2c1` yielded a melting point of 219 to 224 °C. Work on `COC1CCC(OC)O1` (configuration not stated) yielded a melting point of -45 °C. `Cc1cc2ccccc2c(Br)c1C` showed a melting point of 63 °C. `O=C(O)c1cccc(-c2cccnc2)c1` showed a melting point of 202 to 206 °C. Work on `COc1ccc(C#N)c(OC)c1` yielded a melting point of 94 °C. For `O=C1OC(OC2OC(=O)c3ccccc32)c2ccccc21` (configuration not stated), the melting point was 222 °C. For `O=C(O)c1cc(F)c(Cl)cc1F`, the melting point was 153 to 158 °C. Work on `Cc1nc(-c2ccc(CO)s2)cs1` yielded a melting point of 67 to 69 °C. Work on `Oc1ccc2cc(Br)ccc2c1` yielded a melting point of 128 °C. In the case of `O=Cc1cn2ccsc2n1`, the melting point was 71 °C. With `Cc1ccc(C=C(Oc2cccc(C)c2)c2nc3ccccc3s2)cc1` the melting point was 137 to 139 °C. `C=CCN1CCCC1CNC(=O)c1cc(S(=O)(=O)NC)c(N)cc1OC` (configuration not stated) showed a melting point of 169 °C. `CCCc1nc(O)n(-c2ccccc2)n1` gave a melting point of 146 °C. In the case of `Cc1cc(C)c2c(c1C)CC2=O`, the melting point was 98 °C. In the case of `CC(C)CCCC(C)C1CCC2C3CC=C4CC(Cl)CCC4(C)C3CCC12C` (configuration not stated), the melting point was 97 °C. `CC1(C)CC(=O)NC(=O)C1` showed a melting point of 145 °C. Molecule `O=C(O)C(O)(O)C(O)(O)C(=O)O` has a melting point of 114 °C. For `Nc1ccc([N+](=O)[O-])cc1C(F)(F)F`, the melting point was 92 °C. For `Cc1ccc(-c2csc(/C(C#N)=N\Nc3cccc(C)c3)n2)cc1`, the melting point was 132 °C. `N[C@H](CO)[C@H](O)c1ccc([N+](=O)[O-])cc1` gave a melting point of 160 to 166 °C. Molecule `Oc1ccc(Cl)c(Cl)c1Cl` has a melting point of 83.5 °C. `CNC(=O)N(C)c1nc2ccccc2s1` gave a melting point of 120 °C. For `O=C1CCc2ccccc2O1`, the melting point was 25 °C. `CC12CCC3C(CCC4CCCCC43C)C1CCC2=O` (configuration not stated) showed a melting point of 121 °C. In the case of `COC(=O)c1ccc(OC)c(Br)c1`, the melting point was 97 °C. `COc1ccc(-c2ccc(C(=O)O)o2)cc1` showed a melting point of 176 to 178 °C. With `Cn1nc(CCl)cc1-c1ccco1` the melting point was 72 to 73 °C. `Oc1ncc(O)c(O)n1` gave a melting point of 330 °C. Work on `c1ccc2c3c([nH]c2c1)CCCCCC3` yielded a melting point of 74 °C. `CCCCCCCCCCOc1ccc(C(=O)O)cc1` gave a melting point of 114 °C. With `BrCc1ccc2nonc2c1` the melting point was 77 to 80 °C. For `Brc1ccc(I)cn1`, the melting point was 124 °C. For `Cc1ccc(/C=N/c2nc(C(F)(F)F)n[nH]2)cc1`, the melting point was 207 to 209 °C. With `COc1ccc(C(C=C(SC)SC)=C(C#N)C#N)cc1` the melting point was 149 to 152 °C. Molecule `Brc1ccc2c(c1)OCCOCCOCCOCCOCCO2` has a melting point of 79 to 83 °C. With `CCc1ccc(NC(N)=S)cc1` the melting point was 138 °C. For `OCC1OC(O)C(O)C1O` (configuration not stated), the melting point was 88 to 92 °C. `c1cncc(Cn2cccc2)c1` showed a melting point of 59 to 64 °C. For `COc1cc2c(cc1OC)C(c1ccc([N+](=O)[O-])cc1)N(C(C)=O)CC2` (configuration not stated), the melting point was 183 to 185 °C. For `Cn1nc(-c2cc(OCC(=O)O)c(Cl)cc2F)c(Cl)c1OC(F)F`, the melting point was 126 °C. For `N#Cc1ncccc1Cl`, the melting point was 84 °C. `CCOC(=O)CC(CC(=O)OCC)(c1cc(C)c(O)c(C)c1)c1cc(C)c(O)c(C)c1` showed a melting point of 178 °C. Molecule `CN1C(=O)N2CCc3ccccc3C2(c2ccc(Cl)cc2)C1=O` (configuration not stated) has a melting point of 121 to 122 °C. `CC(COc1ccc(C(C)(C)C)cc1)OS(=O)OCCCl` (configuration not stated) gave a melting point of -31.7 °C. In the case of `N#Cc1conc1N`, the melting point was 140 °C. For `FC(F)CC(F)(F)F`, the melting point was -102 °C. `Cc1c(NC(=O)C(C(F)(F)F)C(F)(F)F)c(=O)n(-c2ccccc2)n1C` showed a melting point of 237 to 239 °C. In the case of `O=C1OC(c2ccccc2)=NC1=Cc1ccc(Cl)cc1`, the melting point was 192 to 193 °C. With `CSc1ccccc1/N=C/c1cc(C(C)(C)C)cc(C(C)(C)C)c1O` the melting point was 135 °C. In the case of `CCCOC1CCC2(C)C(CCC3C2CCC2(C)C(OCCC)CCC32)C1` (configuration not stated), the melting point was 112 to 135 °C. Work on `COc1ccc(CNC2=CC(=O)c3ccccc3C2=O)cc1` yielded a melting point of 164 °C. `Nc1ccccc1-c1cc2ccccc2[nH]1` gave a melting point of 153 °C. In the case of `COC(=O)c1sc(N2CCCCC2)c(C#N)c1N`, the melting point was 184 to 185 °C. In the case of `CNCCOC(=O)C=C1CCC2C(C(O)CC3C(C)(C(=O)OC)CCCC23C)C1C` (configuration not stated), the melting point was 115 °C. With `O=c1on(-c2ccccc2)c(Br)c1-c1ccccc1` the melting point was 165 to 166 °C. With `NC(=S)CS(=O)(=O)c1ccc(Cl)cc1` the melting point was 188 to 192 °C. In the case of `NNC(=O)OCc1ccccc1`, the melting point was 68 °C. In the case of `O=C(Nc1nc(-c2ccc(Cl)cc2)cs1)c1ccccc1`, the melting point was 120 °C. Molecule `CN1CCN(C2=Nc3ccccc3Sc3ccc(Cl)cc32)CC1` has a melting point of 119 °C. In the case of `CCOc1cc2c(cc1OCC)C(C)=NCC2`, the melting point was 68 to 71 °C. For `CC(Br)C(=O)c1ccc(Br)cc1` (configuration not stated), the melting point was 85 to 88 °C. Work on `COC(=O)c1ccc(CCl)cc1` yielded a melting point of 40 °C. For `CN(C)c1ccc(C=O)c(F)c1C#N`, the melting point was 125 to 127 °C. `O=C1OCCN1N=Cc1ccc([N+](=O)[O-])o1` gave a melting point of 255 °C. Work on `CCOC(=O)CN1CCN(C(=O)C=Cc2cc(OC)c(OC)c(OC)c2)CC1` yielded a melting point of 96 °C. `O=S1(=O)CCN(CN2CCS(=O)(=O)NC2)CN1` showed a melting point of 154 °C. Molecule `O=C(CBr)c1cc(C(=O)CBr)cc(C(=O)CBr)c1` has a melting point of 111 °C. For `Fc1ccc(Cc2ccc(F)cc2)cc1`, the melting point was 29 to 30 °C. With `C=C1CC23CC1(O)CCC2C12C=CC(O)C(C)(C(=O)O1)C2C3C(=O)O` (configuration not stated) the melting point was 227 °C. Work on `O=C(O)c1ccccc1Cc1ccccc1` yielded a melting point of 118 °C. Work on `O=C(O)c1cc(Br)cc2c1OCC2` yielded a melting point of 230 °C. Work on `c1ccc2c(c1)CC1c3ccccc3CCN1C2` (configuration not stated) yielded a melting point of 85 °C. Molecule `CC(=O)n1c(C)c(C)c2ccccc21` has a melting point of 74 °C. `O=C(Cl)c1csc(-c2ccccc2)n1` showed a melting point of 100 °C. For `Cc1c(-c2ccccc2)sc2ncnc(Cl)c12`, the melting point was 133 to 135 °C. For `O=C1CC2C(CC(OC(=O)c3ccc(-c4ccccc4)cc3)C2CO)O1` (single isomer, unassigned; (-)), the melting point was 128 to 134 °C. `CC1(C)CC(=O)C(=NNc2ccccc2)C(=O)C1` gave a melting point of 148 °C. In the case of `Cc1c(C)c(C)c(O)c(C)c1C`, the melting point was 128 °C. `Clc1ccc(Cc2ccc(Cl)cc2)cc1` gave a melting point of 55.5 °C. With `CCOC(=O)c1sc2sc(C(=O)OCC)c(C)c2c1C` the melting point was 187 °C. In the case of `Nc1nnc(-c2ccccc2)s1`, the melting point was greater than 270 °C. `CC(=O)N1CCc2cccc(N)c21` gave a melting point of 157 to 160 °C.
